The target of this assay is human GPR40 receptor (Homo sapiens (Human), UniProt O14842). Kind of assay: IP1 accumulation measurements using the IPOne assay system. The format is cell-based. The following applies: 1321N1 cells stably expressing human GPR40; IP1 accumulation; read-out: EC50. On the procedure: IP1 accumulation measurements using the IPOne assay system—1321N1 cells stably expressing human GPR40 receptor (Euroscreen, Belgium) are seeded 24 h before the assay in white 384-well plates in culture medium containing 10% FCS, 1% Na-Pyruvate and 400 μg/mL G418. IP1 is assayed according to the manufacturer's description (Cisbio Bioassays, France). In brief, the assay is started by substitution of the culture medium by stimulation buffer (Hepes 10 mM, CaCl2 1 mM, MgCl2 0.5 mM, KCl 4.2 mM, NaCl 146 mM, glucose 5.5 mM and LiCl 50 mM, pH 7.4). Cells are stimulated for 1 h at 37° C., 5% CO2 by addition of the compounds that are diluted in stimulation buffer containing LiCl. Assays are stopped by adding HTRF-conjugates (IP1-d2 and Anti-IP1 cryptate Tb) and lysis buffer, provided by the manufacturer. After an incubation time of 1 h at room temperature plates are measured using an EnVision™, Perkin Elmer. The obtained fluorescence ratios at 665/615 […] are then used to calculate the pEC50 values using Assay Explorer 3.3 Software (Accelrys, Inc.) by interpolation using an IP1 reference curve and subsequent sigmoidal curve fitting allowing for a variable hill slope.
Chain of human GPR40 receptor (O14842 whole entry): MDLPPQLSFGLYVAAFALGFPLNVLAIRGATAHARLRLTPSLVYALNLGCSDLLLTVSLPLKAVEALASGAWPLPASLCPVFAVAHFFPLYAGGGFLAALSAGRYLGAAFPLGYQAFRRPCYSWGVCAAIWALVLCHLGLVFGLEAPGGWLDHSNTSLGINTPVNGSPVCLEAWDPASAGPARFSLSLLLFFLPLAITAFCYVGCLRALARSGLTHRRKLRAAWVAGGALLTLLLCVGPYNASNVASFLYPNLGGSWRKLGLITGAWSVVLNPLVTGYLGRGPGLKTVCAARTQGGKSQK
For the compound `COc1cc(OC)c(Cl)c(-c2ccc(F)c3c2CC[C@H]3Nc2cnc([C@H]3C[C@@H]3C(=O)O)cn2)c1Cl` [Example 29], the EC50 is 5 nM.

For the compound `COc1cc(OC)c(F)c(-c2ccc(F)c3c2CC[C@H]3Nc2cnc([C@H]3C[C@@H]3C(=O)O)cn2)c1F` [Example 37], the EC50 amounted to 81 nM.

Take `Cc1cc(-c2ccc(=O)n(C)c2)cc(C)c1-c1ccc(F)c2c1CC[C@H]2Nc1cnc([C@H]2C[C@@H]2C(=O)O)cn1` [Example 33]: the EC50 amounted to 6 nM.

Consider `Nc1cc(F)c(-c2ccc(F)c3c2CC[C@H]3Nc2cnc([C@H]3C[C@@H]3C(=O)O)cn2)c(F)c1` [Example 18], for which the EC50 came to 150 nM.

For `Cc1cc(OCCC(C)(C)O)cc(C)c1-c1ccc(F)c2c1CC[C@H]2Nc1cnc(C2C[C@@H]2C(=O)O)cn1` (stereo partly drawn) [Example 1, trans-2-(5-{(R)-7-Fluoro-4-[4-(3-hydroxy-3-methyl-butoxy)-2,6-dimethyl-phenyl]-indan-1-ylamino}-pyrazin-2-yl)-cyclopropanecarboxylic acid], the EC50 was found to be 7 nM.

`Cc1cc(OCCC(C)(C)O)cc(C)c1-c1ccc(F)c2c1CC[C@H]2Nc1cnc([C@@H]2C[C@H]2C(=O)O)cn1` [Example 3, (1R,2R)-2-(5-{(R)-7-Fluoro-4-[4-(3-hydroxy-3-methyl-butoxy)-2,6-dimethyl-phenyl]-indan-1-ylamino}-pyrazin-2-yl)-cyclopropanecarboxylic acid]: the EC50 stood at 164 nM.

On to `Cc1cc(C(=O)O)cc(C)c1-c1ccc(F)c2c1CC[C@H]2Nc1cnc([C@H]2C[C@@H]2C(=O)O)cn1` [Example 14], for which the EC50 was determined as 355 nM.

In the case of `Cc1cc(-c2nnn(C)n2)cc(C)c1-c1cccc2c1CC[C@H]2Nc1cnc([C@H]2C[C@@H]2C(=O)O)cn1` [Example 6, (1S,2S)-2-(5-{(R)-4-[2,6-Dimethyl-4-(2-methyl-2H-tetrazol-5-yl)-phenyl]-indan-1-ylamino}-pyrazin-2-yl)-cyclopropanecarboxylic acid], the EC50 worked out at 3 nM.

With `O=C(O)[C@H]1C[C@@H]1c1cnc(N[C@@H]2CCc3c(-c4c(F)cccc4F)ccc(F)c32)cn1` [Example 16], the EC50 is 77 nM.

On to `Cc1cc(C(N)=O)cc(C)c1-c1ccc(F)c2c1CC[C@H]2Nc1cnc([C@H]2C[C@@H]2C(=O)O)cn1` [Example 10], for which the 50% effective concentration (EC50) amounted to 24 nM.

Turning to `COc1cc(C)c(-c2ccc(F)c3c2CC[C@H]3Nc2cnc([C@H]3C[C@@H]3C(=O)O)cn2)c(C)c1` [Example 22], the half-maximal effective concentration (EC50) is 8 nM.

As to `Cc1cc(OCCCS(C)(=O)=O)cc(C)c1-c1ccc(F)c2c1CC[C@H]2Nc1cnc([C@@H]2C[C@H]2C(=O)O)cn1` [Example 5, (1R,2R)-2-(5-{(R)-7-Fluoro-4-[4-(3-methanesulfonyl-propoxy)-2,6-dimethyl-phenyl]-indan-1-ylamino}-pyrazin-2-yl)-cyclopropanecarboxylic acid], the EC50 was determined as 519 nM.

Turning to `Cc1cnc(-c2cc(C)c(-c3ccc(F)c4c3CC[C@H]4Nc3cnc([C@H]4C[C@@H]4C(=O)O)cn3)c(C)c2)nc1` [Example 38], the EC50 stood at 4 nM.

For the compound `COc1cc(-c2cc(C)c(-c3ccc(F)c4c3CC[C@H]4Nc3cnc([C@H]4C[C@@H]4C(=O)O)cn3)c(C)c2)ccn1` [Example 42], the EC50 is 5 nM.

`O=C(O)[C@H]1C[C@@H]1c1cnc(N[C@@H]2CCc3c(-c4ccc(-c5cnco5)cc4)ccc(F)c32)cn1` [Example 23]: the concentration for a half-maximal effect (EC50) turned out to be 144 nM.

Consider `Cc1cc(OCC2(O)CCSCC2)cc(C)c1-c1ccc(F)c2c1CC[C@H]2Nc1cnc([C@H]2C[C@@H]2C(=O)O)cn1` [Example 52], for which the EC50 was 10 nM.

Turning to `Cc1cc(OCC2(C)COC2)cc(C)c1-c1ccc(F)c2c1CC[C@H]2Nc1cnc([C@H]2C[C@@H]2C(=O)O)cn1` [Example 32], the EC50 is 7 nM.

On to `Cc1cc(OCC2(O)CCS(=O)(=O)CC2)cc(C)c1-c1ccc(F)c2c1CC[C@H]2Nc1cnc([C@H]2C[C@@H]2C(=O)O)cn1` [Example 12], for which the EC50 was 14 nM.

On to `COc1cnc(-c2ccc(-c3cccc4c3CC[C@H]4Nc3cnc([C@H]4C[C@@H]4C(=O)O)cn3)cc2)cn1` [Example 9, (1S,2S)-2-(5-{(R)-4-[4-(5-Methoxy-pyrazin-2-yl)-phenyl]-indan-1-ylamino}-pyrazin-2-yl)-cyclopropanecarboxylic acid], for which the EC50 stood at 35 nM.

`COc1cc(F)c(-c2ccc(F)c3c2CC[C@H]3Nc2cnc([C@H]3C[C@@H]3C(=O)O)cn2)c(F)c1` [Example 44]: the EC50 was 90 nM.

For `O=C(O)[C@H]1C[C@@H]1c1cnc(N[C@@H]2CCc3c(-c4ccccc4C(F)(F)F)ccc(F)c32)cn1` [Example 17], the EC50 stood at 23 nM.

Regarding `Cc1cc(-c2cnccn2)cc(C)c1-c1ccc(F)c2c1CC[C@H]2Nc1cnc([C@H]2C[C@@H]2C(=O)O)cn1` [Example 54], the EC50 stood at 4 nM.

As to `Cc1cc(CO)cc(C)c1-c1ccc(F)c2c1CC[C@H]2Nc1cnc([C@H]2C[C@@H]2C(=O)O)cn1` [Example 30], the EC50 worked out at 20 nM.

Regarding `Cc1cc(-c2nnnn2CC(C)(C)O)cc(C)c1-c1ccc(F)c2c1CC[C@H]2Nc1cnc([C@H]2C[C@@H]2C(=O)O)cn1` [Example 39], the EC50 came out at 3 nM.

With `Cc1cc(O[C@@H]2CCOC2)cc(C)c1-c1ccc(F)c2c1CC[C@H]2Nc1cnc([C@H]2C[C@@H]2C(=O)O)cn1` [Example 27], the EC50 was 13 nM.

For `N#CC1(c2ccccc2-c2ccc(F)c3c2CC[C@H]3Nc2cnc([C@H]3C[C@@H]3C(=O)O)cn2)CC1` [Example 26], the half-maximal effective concentration (EC50) is 367 nM.

On to `Cc1ccc(Cl)c(-c2ccc(F)c3c2CC[C@H]3Nc2cnc([C@H]3C[C@@H]3C(=O)O)cn2)c1Cl` [Example 21], for which the half-maximal effective concentration (EC50) was 4 nM.

For the compound `Cc1cc(OCC2CCOCC2)cc(C)c1-c1ccc(F)c2c1CC[C@H]2Nc1cnc([C@H]2C[C@@H]2C(=O)O)cn1` [Example 13], the EC50 amounted to 4 nM.

On to `CC(C)c1ccccc1-c1ccc(F)c2c1CC[C@H]2Nc1cnc([C@H]2C[C@@H]2C(=O)O)cn1` [Example 40], for which the concentration for a half-maximal effect (EC50) is 16 nM.

On to `Cc1cccc(C)c1-c1ccc(F)c2c1CC[C@H]2Nc1cnc([C@H]2C[C@@H]2C(=O)O)cn1` [Example 15], for which the EC50 amounted to 7 nM.

As for `O=C(O)[C@H]1C[C@@H]1c1cnc(N[C@@H]2CCc3c(-c4c(F)cc(OC5CC5)cc4F)ccc(F)c32)cn1` [Example 19], the EC50 was 56 nM.

For `Cc1cc(C(=O)N(C)C)cc(C)c1-c1ccc(F)c2c1CC[C@H]2Nc1cnc([C@H]2C[C@@H]2C(=O)O)cn1` [Example 20], the concentration giving a half-maximal response (EC50) is 75 nM.

As to `COc1cc(OC)c(-c2ccc(F)c3c2CC[C@H]3Nc2cnc([C@H]3C[C@@H]3C(=O)O)cn2)c(OC)c1` [Example 24], the EC50 turned out to be 128 nM.

As for `COc1ccc(-c2cccc3c2CC[C@H]3Nc2cnc([C@H]3C[C@@H]3C(=O)O)cn2)cc1F` [Example 8, (1S,2S)-2-{5-[(R)-4-(3-Fluoro-4-methoxy-phenyl)-indan-1-ylamino]-pyrazin-2-yl}-cyclopropanecarboxylic acid], the concentration giving a half-maximal response (EC50) was 163 nM.

`Cc1cc(C#N)cc(C)c1-c1ccc(F)c2c1CC[C@H]2Nc1cnc([C@H]2C[C@@H]2C(=O)O)cn1` [Example 51]: the EC50 came to 9 nM.

Take `Cc1cc(OCC2(O)CCOCC2)cc(C)c1-c1ccc(F)c2c1CC[C@H]2Nc1cnc([C@H]2C[C@@H]2C(=O)O)cn1` [Example 41]: the EC50 was 11 nM.

Consider `O=C(O)[C@H]1C[C@@H]1c1cnc(N[C@@H]2CCc3c(-c4c(Cl)cccc4Cl)ccc(F)c32)cn1` [Example 25], for which the EC50 came out at 7 nM.

The EC50 is the concentration that produces a half-maximal response.

The values above are taken from patent publication US10253004B2, “Indanylaminopyrazinylcyclopropanecarboxylic acids, pharmaceutical compositions and uses thereof” (Boehringer Ingelheim International GmbH, priority 2017, dated 2019).
